Where two headings read alike, the source gives them in different places.
Experiments:
STAT1 [1] = target: T1, STAT1 (Homo sapiens, UniProt P42224); assay: Isothermal titration calorimetry (ITC) of peptide binding to STAT1
T1 construct: full-length STAT1 (Uniprot #P42224-1) was expressed in E. coli; His tag (pEXP-NHis vector) (N); made in house; host or cells: E. coli T7 Express
T1 sequence (P42224 1-750): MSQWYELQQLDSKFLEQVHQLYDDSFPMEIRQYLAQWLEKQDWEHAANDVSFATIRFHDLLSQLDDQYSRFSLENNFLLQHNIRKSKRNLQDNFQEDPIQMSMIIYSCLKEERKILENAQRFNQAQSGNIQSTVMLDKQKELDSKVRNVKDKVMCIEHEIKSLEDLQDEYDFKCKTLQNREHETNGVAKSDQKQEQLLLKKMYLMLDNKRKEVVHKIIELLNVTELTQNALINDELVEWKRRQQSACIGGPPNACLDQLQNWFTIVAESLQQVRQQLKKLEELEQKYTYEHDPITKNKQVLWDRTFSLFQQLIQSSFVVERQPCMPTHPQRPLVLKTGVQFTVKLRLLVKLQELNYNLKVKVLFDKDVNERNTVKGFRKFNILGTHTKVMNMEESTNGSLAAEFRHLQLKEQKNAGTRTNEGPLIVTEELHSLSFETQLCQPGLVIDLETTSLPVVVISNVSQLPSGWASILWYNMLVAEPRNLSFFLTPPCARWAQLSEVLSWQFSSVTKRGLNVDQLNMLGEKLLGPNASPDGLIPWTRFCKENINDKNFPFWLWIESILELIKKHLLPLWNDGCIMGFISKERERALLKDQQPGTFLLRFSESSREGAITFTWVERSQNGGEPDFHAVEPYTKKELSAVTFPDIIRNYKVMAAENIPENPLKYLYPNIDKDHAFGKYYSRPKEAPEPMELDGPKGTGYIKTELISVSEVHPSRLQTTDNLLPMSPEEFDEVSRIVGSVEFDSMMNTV
Description: To determine affinities and thermodynamic profiles of binding, we performed isothermal titration calorimetry (ITC) experiments for peptides 1, 2, 3, 4, 7, and 8 (Figures A,B and S1,S2, Table S1). […] The experiments were repeated in two different buffer systems, TBST (50 mM Tris pH 8.0, 300 mM NaCl, 0.01% Tween-20) and PBST ([…], 150 mM NaCl, 0.01% Tween-20), to account for possible buffer protonation enthalpy artifacts. […]
Isothermal titration calorimetry (ITC)
ITC experiments were performed using a PEAQ ITC instrument (Malvern Panalytical) in either TBST (50 mM Tris pH 8.0, 300 mM NaCl, 0.5 mM TCEP, 0.01% Tween -20) or PBST (10 mM sodium phosphate pH 7.4, 150 mM NaCl, 0.01% Tween -20) as reaction buffers. STAT1 protein was buffer -exchanged into reaction buffer supplemented with 2% DMSO on a NAP -5 deslating column (Cytiv a #17085301) and its concentration was adjusted to 10 or 20 μM.
Peptides were diluted in reaction buffer from DMSO stocks to a matching 2% DMSO concentration. Peptide concentrations were adjusted to approximately 100-200 μM. ITC experiments were performed with STAT1 in the cell and peptides in the syringe at 25°C, with 750 RPM stirring, DP = 4 μcal/sec. 18 injections of 2 μl were performed over a 50 min titration.
Thermogram integra tion and isotherm fitting were performed using the PEAQ ITC analysis software (Malvern Panalytical ). Isotherms were fitted using a 1:1 binding model. Due to challenges in determining peptide concentrations with high accuracy , protein concentrations and stoichiometry (N=1.0) were kept constant during isotherm fitting, whereas peptide concentrations were allowed to vary. Fixing a single reactant concentration during fitting is acceptable given the sufficiently high C -values and isotherm curvature observed in the […]
Offset subtraction was implemented to remove injection heats.

STAT1 [2] = target: T1, STAT1; assay: Grating-coupled interferometry (GCI) waveRAPID kinetics, immobilised full-length STAT1; assay type: binding; settings: for kd / kon at 0.5 µM: analyte 0.5 µM; for kon at 0.5 µM: read-out: ka
Excerpt: Understanding the molecular determinants of kinetic rate constants of binding (k a, k d) can aid the design of pharmacological probes with longer target engagement, which is beneficial for drug efficacy and decreased toxicity. , We characterized the binding kinetics of 018-derived macrocycles by using grating-coupled interferometry (GCI). We used waveRAPID, a regeneration-free kinetic binding assay that applies sequential analyte pulses of increasing duration onto a GCI biosensor surface with an immobilized target (Figures A, and S3,S4, Table S2).
Grating coupled interferometry (GCI)
GCI experiments were performed on a Creoptix WaveDELTA instrument (Malvern Panalytical). Full-length STAT1 or STAT3 were immobilised on a 4PCH chip (Malvern Panalytical #4PCH-03) to a density 2000-8000 pg/mm2 using EDC/NHS activation followed by amine coupling. Briefly, proteins (500 nM) were applied onto an activated chip in 10 mM MES pH 6.5, 20 mM NaCl, after which the chip surface was passivated with 1M ethanolamine, pH 8.0.
The kinetic measurements were perfor med using 20 mM HEPES pH 7.5, 300 mM NaCl, 0.01% Tween-20, 0.0005% DMSO as running buffer. Peptides were tested at 0.5 or 10 μM concentration using the waveRAPID kinetics experiment with the tight binder or intermediate binder mode, respectively.[4] Sensorgrams were fitted in the waveControl software (Malven Panalytical) using the 1:1 kinetic model. […]

STAT1 [3] = target: T1, STAT1; assay: Fluorescence polarization competition assay with fluorescein-labelled pIFNGR1 docking site peptide probe; assay type: binding; settings: 10 nM fluorescein pIFNGR1 probe, STAT1 1.5 μM, 20 mM Tris pH 8.0, 300 mM NaCl, 0.1% Tween-20, 0.5 mM TCEP, 2.5% DMSO, room temperature; four parameter logistic fit; read-out: IC50 (FP competition, pIFNGR1 probe displacement)
[4] = PBST, replicate 1 (first listed run, Table S1)
[5] = PBST, replicate 2 (second listed run, Table S1)
[6] = PBST, replicate 3 (third listed run, Table S1)
[7] = TBST, replicate 1 (first listed run, Table S1)
[8] = TBST, replicate 2 (second listed run, Table S1)
[9] = TBST, replicate 3 (third listed run, Table S1)
[10] = replicate 1 (first listed run, Table S2)
[11] = replicate 2 (second listed run, Table S2)
[12] = replicate 3 (third listed run, Table S2)

SMILES: CC[C@H](C)[C@H](NC(=O)[C@H](Cc1ccccc1)NC(=O)[C@@H](NC(=O)[C@H](CO)NC(=O)[C@H](Cc1c[nH]c2ccccc12)NC(=O)[C@H](CCSC)NC(C)=O)C(C)C)C(=O)N[C@@H](Cc1c[nH]cn1)C(=O)NCC(=O)N[C@@H](Cc1c[nH]cn1)C(=O)N[C@@H](CC(=O)O)C(=O)NCC(=O)N[C@@H](CO)C(=O)N[C@@H](CC(N)=O)C(=O)N[C@@H](CCCCN)C(=O)NCC(=O)N[C@@H](CO)C(=O)N[C@@H](CCCCN)C(=O)N[C@H](C(=O)N[C@@H](Cc1ccc(O)cc1)C(=O)N[C@H](C(N)=O)[C@@H](C)O)[C@@H](C)O [Peptide 1]
- Kd (STAT1 [1]; PBST pH 7.4 (NaPi, 150 mM NaCl, 0.01% Tween-20), average of 2–3 technical replicates, read-out: KD (ITC, summary Fig 2B)): 253 nM
- -T∆S (STAT1 [1]; [4]): 13.8 kcal/mol
- ∆G (STAT1 [1]; [4]): -9.00 kcal/mol
- ∆H (STAT1 [1]; [4]): -22.8 kcal/mol
- -T∆S (STAT1 [1]; [5]): 12.7 kcal/mol
- ∆G (STAT1 [1]; [5]): -9.17 kcal/mol
- ∆H (STAT1 [1]; [5]): -21.8 kcal/mol
- -T∆S (STAT1 [1]; [6]): 13.7 kcal/mol
- ∆G (STAT1 [1]; [6]): -8.87 kcal/mol
- ∆H (STAT1 [1]; [6]): -22.6 kcal/mol
- Kd (STAT1 [1]; TBST (50 mM Tris pH 8.0, 300 mM NaCl, 0.01% Tween-20), 25°C, 1:1 model, average of three technical replicates ± SD (text and Fig 2A), SD, read-out: KD (ITC)): 533 ± 20 nM
- -TΔS (ITC) (STAT1 [1]; TBST, mean ± SD, SD): 10.10 ± 1.48 kcal/mol
- ΔH (ITC) (STAT1 [1]; TBST, mean ± SD, SD): -18.56 ± 1.55 kcal/mol
- -T∆S (STAT1 [1]; [7]): 9.86 kcal/mol
- ∆G (STAT1 [1]; [7]): -8.54 kcal/mol
- ∆H (STAT1 [1]; [7]): -18.1 kcal/mol
- -T∆S (STAT1 [1]; [8]): 8.75 kcal/mol
- ∆G (STAT1 [1]; [8]): -8.58 kcal/mol
- ∆H (STAT1 [1]; [8]): -17.3 kcal/mol
- -T∆S (STAT1 [1]; [9]): 11.7 kcal/mol
- ∆G (STAT1 [1]; [9]): -8.55 kcal/mol
- ∆H (STAT1 [1]; [9]): -20.3 kcal/mol
- Kd (STAT1 [2]; 20 mM HEPES pH 7.5, 300 mM NaCl, 0.01% Tween-20, 1:1 kinetic model, average of 2–4 technical replicates ± SD, SD): 85.8 ± 6.4 nM
- residence time (STAT1 [2]; STAT1, GCI, read-out: target residence time τ (τ = 1/kd) (converted)): 0.8 min
- kd (STAT1 [2]; [10]): 0.0221 s⁻¹
- kon at 0.5 µM (STAT1 [2]; [10]): 241000 M⁻¹ s⁻¹
- kd (STAT1 [2]; [11]): 0.0172 s⁻¹
- kon at 0.5 µM (STAT1 [2]; [11]): 217000 M⁻¹ s⁻¹
- kd (STAT1 [2]; [12]): 0.0226 s⁻¹
- kon at 0.5 µM (STAT1 [2]; [12]): 262000 M⁻¹ s⁻¹
- IC50 (STAT1 [3]): 4300 nM
